According to patent publication US20080221116A1, “ISOXAZOLINE ALPHA 1a/1d ADRENORECEPTOR ANTAGONISTS” (priority 2006, published 2008):
“And” between values parts separate entries of the source, which are not always exact repeats. Identical values can stand only once. Like-named read-outs stand apart in the source and are kept apart here.

Key:
Conditions in all cases: COS-7 membranes
α1b-AR = target: T1, α1b-AR (Homo sapiens, UniProt P35368); assay: α1-Adrenergic Receptor Binding Assay, 125I-HEAT radio-ligand binding, transfected COS-7 cell membranes, α1b subtype
T1 construct: expressed in transfected cells; host or cells: COS-7 cells (African Green monkey kidney), membranes
T1 sequence (P35368 1-520): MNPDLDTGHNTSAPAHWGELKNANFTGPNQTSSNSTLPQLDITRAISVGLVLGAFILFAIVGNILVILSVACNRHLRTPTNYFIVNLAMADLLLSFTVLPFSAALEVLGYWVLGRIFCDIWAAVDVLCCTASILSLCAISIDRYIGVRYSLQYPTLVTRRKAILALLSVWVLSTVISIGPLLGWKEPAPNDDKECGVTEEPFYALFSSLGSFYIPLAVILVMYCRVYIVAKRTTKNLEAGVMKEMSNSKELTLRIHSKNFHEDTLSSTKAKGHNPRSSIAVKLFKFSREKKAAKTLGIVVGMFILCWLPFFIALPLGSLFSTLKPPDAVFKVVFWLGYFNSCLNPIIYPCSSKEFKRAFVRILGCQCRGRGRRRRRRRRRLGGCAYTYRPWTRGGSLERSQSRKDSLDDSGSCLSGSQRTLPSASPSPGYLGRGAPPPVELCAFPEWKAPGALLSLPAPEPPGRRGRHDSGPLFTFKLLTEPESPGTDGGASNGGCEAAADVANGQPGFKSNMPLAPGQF
Protocol: (§1) Membranes were prepared from COS-7 cells (African Green monkey kidney SV40-transformed cells) that had been transfected with one of the three α1-AR subtypes by the following method: COS cells from ten 100 mm tissue culture plates were scraped into a 5 ml volume of TE (a mixture of 50 mM tris(hydroxymethyl)aminomethane hydrochloride (Tris-HCl) and 5 mM ethylenediaminetetraacetic acid (EDTA) at pH 7.4). The cell suspension was disrupted with a Brinkman Polytron (at a setting of 8) for 10 sec. The disrupted cells were centrifuged at 1000×g for 10 min at 4° C. Supernatants were centrifuged at 34,500×g for 20 min at 4° C. The membrane pellets were suspended in a 2 ml volume of TNE (a mixture of 50 mM Tris-HCl, 5 mM EDTA and 150 mM NaCl at pH7.4). An aliquot of the membrane suspension was stored at −70° C. until use. The protein concentration was determined using a BioRad “DC” protein assay kit following membrane solubilization with Triton X-100.
(§2) Triplicate determinations of radio-ligand binding in the presence of increasing concentrations of testing compound were made. The reagents were added to 96-well polypropylene plate wells. Each assay well contained 140 μL TNE, 25 μL 125′-2-(β-4-hydroxyphenyl)ethylaminomethyltetralone (^125I-HEAT) (specific activity 2200 Ci/mmol, Dupont-New England Nuclear, […] final), 10 μL testing compound dissolved in dimethyl sulfoxide (DMSO) ([…] to 10 μM in half-log increments, final), and 25 μL appropriate α1-AR membrane subtype suspension in TNE (0.5 ng/μL for the α1a and α1b subtypes and 13 ng/μL for the α1d subtype). The plate was incubated at rt for 1 hr. The contents of the wells were filtered through a glass filter (type C) (GF/C) membrane Unifilter plate (Packard Instruments) using the Packard Filtermate cell harvester. The filter plates were dried in a vacuum oven for 30 min at 40° C. 25 μL Microscint 20 liquid scintillation fluid (Packard Instuments) was added to each well. The radioactive content was analyzed in the TopCount microplate scintillation counter (Packard Instruments).
(§3) The Ki values (in nM) shown in Table 1 were determined using GraphPad Prism software.

α1a-AR = target: T2, α1a-AR (Homo sapiens, UniProt P35348); assay: α1-Adrenergic Receptor Binding Assay, 125I-HEAT radio-ligand binding, transfected COS-7 cell membranes, α1a subtype
T2 construct: expressed in transfected cells; host or cells: COS-7 cells (African Green monkey kidney), membranes
T2 sequence (P35348 1-466): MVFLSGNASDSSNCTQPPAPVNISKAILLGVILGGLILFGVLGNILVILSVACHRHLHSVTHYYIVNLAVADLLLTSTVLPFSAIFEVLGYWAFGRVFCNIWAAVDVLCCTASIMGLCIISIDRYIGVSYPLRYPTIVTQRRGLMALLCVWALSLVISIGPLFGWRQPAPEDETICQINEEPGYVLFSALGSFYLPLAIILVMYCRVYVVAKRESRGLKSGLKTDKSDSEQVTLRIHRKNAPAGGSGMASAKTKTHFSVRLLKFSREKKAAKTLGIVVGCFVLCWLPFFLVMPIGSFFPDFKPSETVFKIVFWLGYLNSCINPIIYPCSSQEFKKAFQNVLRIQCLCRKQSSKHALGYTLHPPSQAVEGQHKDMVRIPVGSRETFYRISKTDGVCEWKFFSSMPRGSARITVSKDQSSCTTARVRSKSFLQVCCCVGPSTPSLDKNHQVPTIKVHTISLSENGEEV
Protocol: as §1, §2, §3

α1d-AR = target: T3, α1d-AR (Homo sapiens, UniProt P25100); assay: α1-Adrenergic Receptor Binding Assay, 125I-HEAT radio-ligand binding, transfected COS-7 cell membranes, α1d subtype
T3 construct: expressed in transfected cells; host or cells: COS-7 cells (African Green monkey kidney), membranes
T3 sequence (P25100 1-572): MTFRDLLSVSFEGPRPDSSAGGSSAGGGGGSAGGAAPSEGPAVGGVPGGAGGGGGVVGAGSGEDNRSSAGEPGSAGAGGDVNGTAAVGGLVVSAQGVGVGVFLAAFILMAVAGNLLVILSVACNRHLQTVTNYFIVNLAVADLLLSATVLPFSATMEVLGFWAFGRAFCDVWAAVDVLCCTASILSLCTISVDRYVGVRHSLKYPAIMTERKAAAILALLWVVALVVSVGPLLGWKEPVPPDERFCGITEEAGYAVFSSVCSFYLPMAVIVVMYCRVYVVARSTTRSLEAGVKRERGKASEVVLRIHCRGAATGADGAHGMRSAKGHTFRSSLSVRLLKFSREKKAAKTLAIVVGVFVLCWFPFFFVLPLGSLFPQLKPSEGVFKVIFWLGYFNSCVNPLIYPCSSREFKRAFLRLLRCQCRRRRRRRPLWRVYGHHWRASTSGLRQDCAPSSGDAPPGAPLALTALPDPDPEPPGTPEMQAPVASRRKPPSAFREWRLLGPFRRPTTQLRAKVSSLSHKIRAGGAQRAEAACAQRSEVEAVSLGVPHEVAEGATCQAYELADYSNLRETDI
Protocol: as §1, §2, §3

[1] = average value, read-out: Alpha 1 Ki α1b (1) Average Value
[2] = individual values, read-out: Alpha 1 Ki α1b (2) Individual Values
[3] = average value, read-out: Alpha 1 Ki α1a (1) Average Value
[4] = individual values, read-out: Alpha 1 Ki α1a (2) Individual Values
[5] = average value, read-out: Alpha 1 Ki α1d (1) Average Value
[6] = individual values, read-out: Alpha 1 Ki α1d (2) Individual Values

Row | Structure (SMILES) | Ki (α1b-AR; [1]) [nM] | Ki (α1b-AR; [2]) | Ki (α1a-AR; [3]) [nM] | Ki (α1a-AR; [4]) | Ki (α1d-AR; [5]) [nM] | Ki (α1d-AR; [6])
1 | CC(C)Oc1ccccc1N1CCN(CC2CC(C(=O)N3CCc4ccc([N+](=O)[O-])cc43)=NO2)CC1 (stereo not drawn) [Compound 11, {5-[4-(2-isopropoxy-phenyl)-piperazin-1-ylmethyl]-4,5-dihydro-isoxazol-3-yl}-(6-nitro-2,3-dihydro-indol-1-yl)-methanone] | 145 | 153 nM and 136 nM | 1.42 | 2.2 nM and 0.63 nM | 1.82 | 3.1 nM and 0.55 nM
2 | CC(C)Oc1ccccc1N1CCN(CC2CC(C(=O)N3CCN(c4ccccc4OC(C)C)CC3)=NO2)CC1 (stereo not drawn) [Compound 17, [4-(2-isopropoxy-phenyl)-piperazin-1-yl]-{5-[4-(2-isopropoxy-phenyl)-piperazin-1-ylmethyl]-4,5-dihydro-isoxazol-3-yl}-methanone] | 187 | 187 nM | 16.3 | 16.3 nM | 6.6 | 6.6 nM
3 | CC(=O)N1CCc2cc(NC(=O)C3=NOC(CN4CCN(c5ccccc5OC(C)C)CC4)C3)ccc21 (stereo not drawn) [Compound 22, 5-[4-(2-isopropoxy-phenyl)-piperazin-1-ylmethyl]-4,5-dihydro-isoxazole-3-carboxylic acid (1-acetyl-2,3-dihydro-1H-indol-5-yl)-amide] | 80.4 | 73 nM and 87.7 nM | 2.02 | 2.54 nM and 1.5 nM | 1.81 | 1.5 nM and 2.13 nM
4 | CC(C)Oc1ccccc1N1CCN(CC2CC(CN3CCc4ccccc43)=NO2)CC1 (stereo not drawn) [Compound 4, 1-{5-[4-(2-isopropoxy-phenyl)-piperazin-1-ylmethyl]-4,5-dihydro-isoxazol-3-ylmethyl}-2,3-dihydro-1H-indole] | 101 | 101 nM | 1.9 | 1.9 nM | 10 | 10 nM
5 | COc1cccc(CNc2ccc3c(c2)N(CC2=NOC(CN4CCN(c5ccccc5OC(C)C)CC4)C2)CC3)c1 (stereo not drawn) [Compound 9, (1-{5-[4-(2-isopropoxy-phenyl)-piperazin-1-ylmethyl]-4,5-dihydro-isoxazol-3-ylmethyl}-2,3-dihydro-1H-indol-6-yl)-(3-methoxy-benzyl)-amine] | 195 | 195 nM | 34 | 34 nM | 22 | 22 nM
6 | CC(C)Oc1ccccc1N1CCN(CC2CC(C(=O)N3CCc4cc(F)ccc43)=NO2)CC1 (stereo not drawn) [Compound 20, (5-fluoro-2,3-dihydro-indol-1-yl)-{5-[4-(2-isopropoxy-phenyl)-piperazin-1-ylmethyl]-4,5-dihydro-isoxazol-3-yl}-methanone] | 112 | 97.2 nM and 126 nM | 2.23 | 1.35 nM and 3.1 nM | 0.623 | 0.145 nM and 1.1 nM
7 | CC(C)Oc1ccccc1N1CCN(CC2CC(C(=O)N3CCc4ccc(NCc5ccccc5F)cc43)=NO2)CC1 (stereo not drawn) [Compound 15, [6-(2-fluoro-benzylamino)-2,3-dihydro-indol-1-yl]-{5-[4-(2-isopropoxy-phenyl)-piperazin-1-ylmethyl]-4,5-dihydro-isoxazol-3-yl}-methanone] | 128 | 128 nM | 9.6 | 9.6 nM | 11.6 | 11.6 nM

Results, then the compound that gave them:

Row | Ki (α1b-AR; [1]) [nM] | Ki (α1b-AR; [2]) | Ki (α1a-AR; [3]) [nM] | Ki (α1a-AR; [4]) | Ki (α1d-AR; [5]) [nM] | Ki (α1d-AR; [6]) | Structure (SMILES)
8 | 521 | 521 nM | 2.32 | 2.32 nM | 19.9 | 19.9 nM | CC(C)Oc1ccccc1N1CCN(CC2CC(C(=O)N3CCOCC3)=NO2)CC1 (single isomer, unassigned) [Compound 44, {(5S*)-5-[4-(2-isopropoxy-phenyl)-piperazin-1-ylmethyl]-4,5-dihydro-isoxazol-3-yl}-morpholin-4-yl-methanone]
9 | 259 | 259 nM | 5.65 | 5.65 nM | 6.56 | 6.56 nM | COc1cc2c(cc1OC)N(C(=O)C1=NOC(CN3CCN(c4ccccc4OC(C)C)CC3)C1)CC2 (stereo not drawn) [Compound 23, (5,6-dimethoxy-2,3-dihydro-indol-1-yl)-{5-[4-(2-isopropoxy-phenyl)-piperazin-1-ylmethyl]-4,5-dihydro-isoxazol-3-yl}-methanone]
10 | 217 | 223 nM and 210 nM | 1.6 | 1.4 nM and 1.8 nM | 8.55 | 10.4 nM and 6.7 nM | CC(C)Oc1ccccc1N1CCN(CC2CC(C(=O)N3CCC(Oc4ccccc4)CC3)=NO2)CC1 (single isomer, unassigned) [Compound 39, {(5S*)-5-[4-(2-isopropoxy-phenyl)-piperazin-1-ylmethyl]-4,5-dihydro-isoxazol-3-yl}-(4-phenoxy-piperidin-1-yl)-methanone]
11 | 1080 | 1080 nM | 317 | 317 nM | 104 | 104 nM | CC(C)Oc1ccccc1N1CCN(CC2CC(C(=O)N3CC(C)(C)c4cc(Br)ccc43)=NO2)CC1 (single isomer, unassigned) [Compound 43, (5-bromo-3,3-dimethyl-2,3-dihydro-indol-1-yl)-{(5S*)-5-[4-(2-isopropoxy-phenyl)-piperazin-1-ylmethyl]-4,5-dihydro-isoxazol-3-yl}-methanone]
12 | 101 | 101 nM | 5.46 | 5.46 nM | 3.95 | 3.95 nM | CC(=O)N1CCc2ccc(NC(=O)C3=NOC(CN4CCN(c5ccccc5OC(C)C)CC4)C3)cc21 (stereo not drawn) [Compound 24, 5-[4-(2-isopropoxy-phenyl)-piperazin-1-ylmethyl]-4,5-dihydro-isoxazole-3-carboxylic acid (1-acetyl-2,3-dihydro-1H-indol-6-yl)-amide]
